Values after ≈ are worked out from the molar mass of the structure shown.
How the values were obtained:
water solubility = assay type: physicochemical
[1] = mammals and Phase 1 clinical trial in patients; Carson et al. 1984; cited from earlier work
L1210 leukemia cells = test: in vivo assay for antileukemic activity (median lifespan); design: species or system mouse (male CD2 F1); key to % T/C Animals (1): Tx = Toxic; details: IP once daily Days 3-7
Method: Another test protocol is the in vivo assay for antileukemic activity. This assay is carried out with male CD2 F1 mice (six per treatment group) that weigh 22-24 grams at first treatment. L1210 leukemia cells are harvested from the peritoneal ascites fluid of a leukemic male DBA2 mouse and diluted with sterile 0.9% saline containing 2.1% W/V bovine serum albumin, 2000 U/ml penicillin, and 0.3 mg/ml streptomycin. The cells are counted with a Coulter counter. The mice are randomized, inoculated with 10^4 L1210 cells (0.5 ml, IP), and rerandomized to treatment or control groups on Day 0. The test compound is dissolved in 10% aqueous dimethylsulfoxide. Treatment groups are injected IP with 0.5 ml of freshly made DMSO solutions of the test compound once daily on Days 3-7. Control mice are treated with 0.5 ml 10% dimethylsulfoxide. All mice are weighed on Days 3 and 7 and all dying mice are autopsied to confirm the presence of advanced leukemia. A % T/C value [T/C computed as (median lifespan of the treated group/median lifespan of the control group)] greater than 125 is considered as showing significant activity. The results for nucleotide compounds and compositions of the invention exemplified by 3'-acetyl-2-chloro-2'-deoxy-5'-adenylic acid, monosodium salt, are presented in Table I.

Colon 36 = test: tumor growth delay assay, Colon 36; assay type: in vivo, mouse (CD2F1 hybrid); design: key to Rating: Tx: Toxic; ++++: High Activity; +++: Marked Activity; ++: Moderate Activity; +: Slight Activity; -: Inactive; UT: Unsatisfactory Test; details: 9.5 mg/kg (dose of greatest activity), IP
Method: (§1) A test protocol to show activity of the compounds of the present invention against solid tumors was that described below, for example, in inhibiting the growth of colon tumors.
(§2) The tumor growth delay assay assesses the antitumor activity of a test agent by measurement of the treatment-induced delay of tumor growth.
(§3) Test animals were CD2F1 hybrid mice derived from the inbred strain of tumor origin. After the required mice were randomized they received 30-50 mg subcutaneous implants of either colon 36 or colon 8 by trocar on Day 0. Samples of each donor tumor were incubated in thioglycolate media as a check for contamination of the tumor material. After tumor inoculation mice were rerandomized and distributed at 10 mice per treatment group (20 for control).
(§4) Drug treatment was initiated when tumors reached measurement in two dimensions by the formula:
(§5) tumor weight (mg)=(a+b^2)
(§6) where a and b are the tumor length and width, respectively. Drug, suspended in methyl-cellulose, was administered intraperitoneally Q4HX3 for nine consecutive days in a range of toxic to nontoxic doses. Tumor-bearing control groups were injected with methyl-cellulose. Animal survival was monitored daily. Tumors were measured twice weekly and animal weights recorded on a weekly basis. All dead mice were autopsied to determine the cause of death (drug or tumor). Any mouse bearing a tumor larger than the smallest lethal control tumor for two consecutive measurements was sacrificed, provided that greater than 25 days had elapsed since last treatment. Any tumor-free mouse was retained long enough so that a single surviving tumor cell at last treatment could grow to an unmistakable subcutaneous tumor.
(§7) T/C was calculated based on the difference in days required for the treated (T) and control (C) groups to reach an evaluation size of 1000 mg. Gross and net logs of cell kill were determined based on standard methodologies. The degree of activity or rating is a function of cell kill. Activity is defined in accordance with the standard methodologies as follows: […]

Colon 08 = test: tumor growth delay assay, Colon 08; assay type: in vivo, mouse (CD2F1 hybrid); design: key to Rating: Tx: Toxic; ++++: High Activity; +++: Marked Activity; ++: Moderate Activity; +: Slight Activity; -: Inactive; UT: Unsatisfactory Test; details: 15 mg/kg (dose of greatest activity), IP
Method: as §1, §2, §3, §4, §5, §6, §7

[2] = difference in days to reach 1000 mg

water solubility (in words) (water solubility)	solubility (water solubility; in water)	Structure (SMILES)	antileukemic and immunosuppressive activity [1]	% T/C Animals (1) (L1210 leukemia cells; 48 mg/kg, >125 significant)	% T/C Animals (2) (L1210 leukemia cells; 48 mg/kg, >125 significant)	% T/C Animals (1) (L1210 leukemia cells; 77 mg/kg, >125 significant)	% T/C Animals (2) (L1210 leukemia cells; 77 mg/kg, >125 significant)	% T/C Animals (1) (L1210 leukemia cells; 124 mg/kg)	% T/C Animals (2) (L1210 leukemia cells; 124 mg/kg, >125 significant)	% T/C Animals (1) (L1210 leukemia cells; 200 mg/kg)	Rating (Colon 36)	T/C (Colon 36; [2])	Net Kill (Colon 36; net logs of cell kill)	Rating (Colon 08)	T/C (Colon 08; [2])	Net Kill (Colon 08; net logs of cell kill)
sparingly soluble in water	~1000 µg/mL (≈ 3.5 mM)	Nc1nc(Cl)nc2c1ncn2[C@H]1C[C@H](O)[C@@H](CO)O1 [2-chloro-2'-deoxyadenosine]	antileukemic and immunosuppressive activity													
		CC(=O)O[C@H]1C[C@H](n2cnc3c(N)nc(Cl)nc32)O[C@@H]1COP(=O)([O-])O.O.[Na+] [Example 1, 2-Chloro-2'-deoxy-5'-adenylic Acid, 3'-acetate, Monosodium Salt, Monohydrate]		124%	149%	126%	112%	Tx	87%	Tx	++	14.0	0.6	+	12.9	0.4
